Reference: ChEMBL document CHEMBL3739339, “Discovery of a series of 2-(pyridinyl)pyrimidines as potent antagonists of GPR40” (Medchemcomm, 2015)
Values after ≈ are worked out from the molar mass of the structure shown. Active and inactive are the calls of the source. No cut-off for these calls is given here.

Columns and labels:
[1] = Lipophilicity, log D of the compound at pH 7.4; format: physicochemical; details: buffer
[2] = target: Free fatty acid receptor 1 (Homo sapiens, UniProt O14842); assay: Antagonist activity against human GPR40 expressed in HEK293s FLPIN cells assessed as elaidic acid stimulated IP1 release after 2 hrs by TR-FRET analysis; format: functional, cell-based
Sequence of Free fatty acid receptor 1 (Homo sapiens, UniProt O14842) (O14842 whole entry): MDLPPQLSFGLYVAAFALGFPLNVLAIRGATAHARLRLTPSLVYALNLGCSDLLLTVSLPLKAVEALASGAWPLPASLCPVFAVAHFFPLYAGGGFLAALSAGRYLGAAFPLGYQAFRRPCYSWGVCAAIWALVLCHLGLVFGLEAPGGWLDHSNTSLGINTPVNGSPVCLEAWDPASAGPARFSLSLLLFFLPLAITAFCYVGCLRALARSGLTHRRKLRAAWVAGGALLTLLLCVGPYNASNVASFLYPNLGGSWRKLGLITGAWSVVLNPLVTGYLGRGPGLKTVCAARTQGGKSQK

Liver microsome = assay: Intrinsic clearance in human liver microsomes […]; format: ADME
[3] = target: Free fatty acid receptor 1 (Rattus norvegicus, UniProt Q8K3T4); assay: Antagonist activity against rat GPR40
Sequence of Free fatty acid receptor 1 (Rattus norvegicus, UniProt Q8K3T4) (Q8K3T4 whole entry): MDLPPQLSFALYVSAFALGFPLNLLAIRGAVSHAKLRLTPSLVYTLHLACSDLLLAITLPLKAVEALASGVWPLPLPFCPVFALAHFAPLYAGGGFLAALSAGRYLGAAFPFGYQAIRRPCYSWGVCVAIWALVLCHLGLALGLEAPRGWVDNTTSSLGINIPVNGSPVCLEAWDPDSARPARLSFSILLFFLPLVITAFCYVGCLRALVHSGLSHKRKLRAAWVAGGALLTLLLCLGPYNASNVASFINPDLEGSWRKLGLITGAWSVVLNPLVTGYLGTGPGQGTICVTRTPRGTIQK

[4] = Solubility of compound; format: physicochemical
Rattus norvegicus [5] = organism: Rattus norvegicus; assay: Unbound clearance in rat; format: ADME, organism-based; details: in vivo
[6] = Oral bioavailability in rat; format: ADME, organism-based; details: in vivo
[7] = Oral absorption in rat; format: ADME, organism-based; details: in vivo, read-out: Fabs
[8] = Fraction unbound in rat plasma; format: ADME, cell-free
Hepatocyte = assay: Intrinsic clearance in rat hepatocytes measured per 10^6 cells; format: ADME, cell-based
[9] = Volume of distribution at steady state in rat; format: ADME, organism-based; details: in vivo, read-out: Vdss
[10] = Clearance in rat; format: ADME, organism-based; details: in vivo
[11] = Fraction unbound in human plasma; format: ADME, cell-free
[12] = target: Free fatty acid receptor 1 (Mus musculus) (UniProt Q76JU9); assay: Antagonist activity against mouse GPR40
Sequence of Free fatty acid receptor 1 (Mus musculus) (Q76JU9 whole entry): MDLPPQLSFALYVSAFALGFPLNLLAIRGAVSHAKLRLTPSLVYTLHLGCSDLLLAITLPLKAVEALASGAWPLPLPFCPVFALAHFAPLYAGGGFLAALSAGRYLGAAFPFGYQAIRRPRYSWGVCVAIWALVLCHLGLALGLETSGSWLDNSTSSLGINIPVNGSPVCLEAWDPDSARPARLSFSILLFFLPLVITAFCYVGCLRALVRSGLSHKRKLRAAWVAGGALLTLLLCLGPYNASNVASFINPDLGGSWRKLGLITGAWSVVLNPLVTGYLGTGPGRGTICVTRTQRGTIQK

[13] = target: T1, Free fatty acid receptor 2 (Homo sapiens) (UniProt O15552); assay: Antagonist activity at GPR43 (unkown origin)
T1 sequence (whole entry): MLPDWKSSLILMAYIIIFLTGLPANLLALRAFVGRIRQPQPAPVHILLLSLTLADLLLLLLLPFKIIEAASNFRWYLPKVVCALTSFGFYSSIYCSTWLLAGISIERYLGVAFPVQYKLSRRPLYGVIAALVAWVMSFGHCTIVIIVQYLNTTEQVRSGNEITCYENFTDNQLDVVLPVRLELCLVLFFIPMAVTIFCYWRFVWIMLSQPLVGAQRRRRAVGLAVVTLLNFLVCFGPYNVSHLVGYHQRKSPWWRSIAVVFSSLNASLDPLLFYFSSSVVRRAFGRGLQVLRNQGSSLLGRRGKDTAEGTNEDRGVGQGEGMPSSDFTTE

Rattus norvegicus [14] = assay: Effect on plasma NEFA level in male Zucker rat at 80 mg/kg measured 4 hrs by ELISA assay relative to vehicle control; format: ADME, organism-based; details: in vivo
Rattus norvegicus [15] = assay: Effect on plasma insulin level in male Zucker rat at 80 mg/kg measured after 4 hrs by ELISA relative to vehicle control; format: ADME, organism-based; details: in vivo
Rattus norvegicus [16] = assay: Inhibition of NEFA-driven plasma insulin level in male Zucker rat pretreated with beta3-agonist for 30 mins at 80 mg/kg measured 4 hrs post dosing by ELISA; format: functional

Structure (SMILES) | logD [1] | IC50 [2] [nM] | also measured
OC1CN(c2cc(COc3ccc(F)c(F)c3F)nc(-c3ccccn3)n2)C1 | 2.8 | 3160 | –
Cc1cc(COc2ccccc2C#N)nc(-c2ccccn2)n1 | 2.7 | 10000 | –
Cc1cc(COc2cccc(Cl)c2)nc(-c2ccccn2)n1 | 3.7 | 398 | –
Cc1cc(COc2ccccc2S(C)(=O)=O)nc(-c2ccccn2)n1 | 1.5 | > 39800 | –
CC1(C)CN(c2cc(COc3ccc(F)c(F)c3F)nc(-c3ccccn3)n2)C1 | 4.3 | 25.1 | –
CC(=O)Nc1ccccc1OCc1cc(C)nc(-c2ccccn2)n1 | 1.6 | > 39800 | –
COc1ccc(OCc2cc(C)nc(-c3ccccn3)n2)cc1 | 2.8 | 7940 | –
CC1(CS(C)(=O)=O)CN(c2cc(COc3ccc(F)c(F)c3F)nc(-c3ccccn3)n2)C1 | 2.9 | 6310 | –
Cc1cc(COc2ccc(F)cc2F)nc(-c2ccccn2)n1 | 3.1 | 398 | –
COc1cccc(OCc2cc(C)nc(-c3ccccn3)n2)c1 | 2.9 | 2000 | –
Cc1cc(COc2ccc(F)c(F)c2F)nc(-c2ccccn2)n1 | 3.3 | 251 | CLint (Liver microsome): 57 µL/min/mg; IC50 [3]: 200 nM; solubility [4]: 22 µM (≈ 7.29 µg/mL); CL free (Rattus norvegicus [5]): 380 mL/min/kg; bioavailability [6]: 39%; Fa [7]: 59%; fraction unbound [8]: 0.063; CLint (Hepatocyte): 17 µL/min/1e6 cells; Vd [9]: 2.3 L/kg; clearance [10]: 24 mL/min/kg; fraction unbound [11]: 0.03
COc1ccccc1OCc1cc(C)nc(-c2ccccn2)n1 | 2.5 | 2000 | –
Cc1cc(COc2ccc(F)cc2)nc(-c2ccccn2)n1 | 3 | 631 | –
Cc1cc(COc2cc(F)c(F)cc2F)nc(-c2ccccn2)n1 | 3.2 | 398 | –
c1ccc(OCc2cc(N3CCOCC3)nc(-c3ccccn3)n2)cc1 | 2.8 | 631 | –
CCNc1cc(COc2cccc(F)c2)nc(-c2ccccn2)n1 | 3.9 | 631 | –
CC(C)Nc1cc(COc2cccc(F)c2)nc(-c2ccccn2)n1 | 4.3 | 100 | –
COC1(COc2cc(COc3ccc(F)c(F)c3F)nc(-c3ccccn3)n2)COC1 | 3.5 | 501 | –
COc1cc(COc2cccc(F)c2)nc(-c2ccccn2)n1 | 3.6 | 1260 | –
Cc1cc(COc2cc(F)cc(F)c2F)nc(-c2ccccn2)n1 | 3.4 | 501 | –
Cc1cc(N/N=C/c2ccccc2)nc(-c2ccccc2)n1 | 4.3 | 251 | solubility [4]: < 0.3 µM
Cc1cc(COc2c(F)ccc(F)c2F)nc(-c2ccccn2)n1 | 3.1 | 1580 | –
Cc1cc(COc2ccc(S(C)(=O)=O)cc2)nc(-c2ccccn2)n1 | 1.5 | > 39800 | –
Fc1ccc(OCc2cc(N3CC4(CCO4)C3)nc(-c3ccccn3)n2)c(F)c1F | 3.3 | 501 | –

Structure (SMILES) | logD [1] | IC50 [2] [nM] | also measured
Cc1cc(COc2ccccc2)nc(-c2ccccn2)n1 | 3.4 | 794 | –
Cc1cc(COc2cc(F)c(F)c(F)c2)nc(-c2ccccn2)n1 | 3.4 | 398 | –
Fc1ccc(OCc2cc(OCC(F)(F)F)nc(-c3ccccn3)n2)c(F)c1F | > 4.9 | 7.94 | –
Cc1cc(COc2cccc(F)c2)nc(-c2ccccn2)n1 | 3.1 | 794 | –
Fc1ccc(OCc2cc(OCC3(F)COC3)nc(-c3ccccn3)n2)c(F)c1F | 4 | – | CLint (Liver microsome): 56 µL/min/mg; IC50 [3]: 31.6 nM; solubility [4]: 2.9 µM (≈ 1.22 µg/mL); CL free (Rattus norvegicus [5]): 1100 mL/min/kg; bioavailability [6]: 12%; Fa [7]: 16%; fraction unbound [8]: 0.017; CLint (Hepatocyte): 72 µL/min/1e6 cells; Vd [9]: 1.4 L/kg; clearance [10]: 19 mL/min/kg; fraction unbound [11]: 0.015
Cc1cc(COc2cccc(F)c2F)nc(-c2ccccn2)n1 | 3.2 | 398 | –
CC(=O)Nc1ccc(OCc2cc(C)nc(-c3ccccn3)n2)cc1 | 1.9 | > 39800 | –
CC1(C#N)CN(c2cc(COc3ccc(F)c(F)c3F)nc(-c3ccccn3)n2)C1 | 3.3 | 158 | CLint (Liver microsome): 52 µL/min/mg; IC50 [3]: 63.1 nM; solubility [4]: 2.9 µM (≈ 1.19 µg/mL); CL free (Rattus norvegicus [5]): 540 mL/min/kg; inhibition [12]: Active; bioavailability [6]: 32%; Fa [7]: 56%; inhibition [13]: inactive; Activity (Rattus norvegicus [14]): Non-toxic; fraction unbound [8]: 0.056; CLint (Hepatocyte): 26 µL/min/1e6 cells; Activity (Rattus norvegicus [15]): Non-toxic; inhibition in vivo at 80 mg/kg (Rattus norvegicus [16]): 70%; Vd [9]: 3 L/kg; clearance [10]: 30 mL/min/kg; fraction unbound [11]: 0.048
CC(=O)Nc1cccc(OCc2cc(C)nc(-c3ccccn3)n2)c1 | 2.1 | > 39800 | –
Cc1cc(COc2ccccc2F)nc(-c2ccccn2)n1 | 2.9 | 398 | –
Cc1cc(COc2cccc(C#N)c2)nc(-c2ccccn2)n1 | 2.7 | 2510 | –
Cc1cc(COc2ccccc2Cl)nc(-c2ccccn2)n1 | 3.4 | 316 | –
N#CCC1(COc2cc(COc3ccc(F)c(F)c3F)nc(-c3ccccn3)n2)COC1 | 3.3 | 398 | –
CN(C)c1cc(COc2cccc(F)c2)nc(-c2ccccn2)n1 | 3.6 | 1580 | –
Cc1cc(COc2ccc(F)c(F)c2)nc(-c2ccccn2)n1 | 3.2 | 501 | –
Cc1cc(COc2c(F)cc(F)cc2F)nc(-c2ccccn2)n1 | 3.2 | 1260 | –
Cc1cc(COc2ccc(Cl)cc2)nc(-c2ccccn2)n1 | 3.7 | 251 | –
Cc1cc(COc2ccc(C#N)cc2)nc(-c2ccccn2)n1 | 2.6 | 31600 | –
CC1(COc2cc(COc3ccc(F)c(F)c3F)nc(-c3ccccn3)n2)COC1 | 4 | 79.4 | –
Fc1ccc(OCc2cc(OCC3COC3)nc(-c3ccccn3)n2)c(F)c1F | 3.7 | 316 | –
Fc1ccc(OCc2cc(OCC3CCC3)nc(-c3ccccn3)n2)c(F)c1F | 4.5 | 12.6 | –
Cc1cc(COc2cccc(S(C)(=O)=O)c2)nc(-c2ccccn2)n1 | 1.7 | > 39800 | –
CCOc1cc(COc2cccc(F)c2)nc(-c2ccccn2)n1 | 4.1 | 251 | –
